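Interpolation was linear, between the two tested concentrations surrounding the appropriate level; five concentrations were tested over 48 hours in 96-well plates. The concentration for 50% growth inhibition is given as GI50.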 Activity calls are given as the source filed them. No stated cut-off is given here; in the data, active = GI50 up to about 1.1 µM and inactive = higher.
Tests used:
Test in all cases: inhibition of tumour cell growth, NCI panel, 48 h
786-0 = tested on: 786-0
A549 = tested on: A549
COLO 205 = tested on: COLO 205
EKVX = tested on: EKVX
HCC 2998 = tested on: HCC 2998
HOP-62 = tested on: HOP-62
HT-29 = tested on: HT-29
K562 = tested on: K562
LOX IMVI = tested on: LOX IMVI
MOLT-4 = tested on: MOLT-4
NCI-H460 = tested on: NCI-H460
NCI-H522 = tested on: NCI-H522
OVCAR-8 = tested on: OVCAR-8
RXF 393 = tested on: RXF 393
SK-MEL-28 = tested on: SK-MEL-28
TK-10 = tested on: TK-10
OVCAR-3 = tested on: OVCAR-3
RPMI-8226 = tested on: RPMI-8226

Measured: GI50

COC(=O)C(=NNc1ccccc1[N+](=O)[O-])C(=O)OC
inactive: 786-0 > 100 µM | A549 > 100 µM | COLO 205 > 100 µM | EKVX > 100 µM | HCC 2998 > 100 µM | HOP-62 > 100 µM | HT-29 > 100 µM | K562 > 100 µM | LOX IMVI > 100 µM | MOLT-4 > 100 µM | NCI-H460 > 100 µM | NCI-H522 > 100 µM | OVCAR-8 > 100 µM | RXF 393 > 100 µM | SK-MEL-28 > 100 µM | TK-10 > 100 µM

Cc1nc2ccccc2nc1CC(=O)C(=O)Nc1ccc(Cl)cc1Cl
inactive: 786-0 > 100 µM | A549 > 100 µM | COLO 205 > 100 µM | EKVX > 100 µM | HCC 2998 > 100 µM | HOP-62 > 100 µM | K562 > 100 µM | LOX IMVI > 100 µM | MOLT-4 > 100 µM | NCI-H460 > 100 µM | NCI-H522 57.4 µM | OVCAR-3 > 100 µM | OVCAR-8 > 100 µM | RPMI-8226 > 100 µM | RXF 393 > 100 µM | SK-MEL-28 > 100 µM | TK-10 > 100 µM

CC1OC(OC2C(CO)OC(O[C@H]3CC[C@@]4(C)C(=CC[C@H]5[C@@H]6C[C@@H]7O[C@]8(CC[C@@H](C)CN8)[C@@H](C)[C@@H]7[C@@]6(C)CC[C@@H]54)C3)C(O)C2O)C(O)C(O)C1O (some centres undefined)
inactive: 786-0 > 100 µM | A549 > 100 µM | COLO 205 > 100 µM | EKVX 76 µM | HOP-62 > 100 µM | HT-29 > 100 µM | K562 > 100 µM | LOX IMVI > 100 µM | MOLT-4 > 100 µM | NCI-H460 > 100 µM | NCI-H522 70.6 µM | OVCAR-3 > 100 µM | OVCAR-8 > 100 µM | RPMI-8226 > 100 µM | RXF 393 > 100 µM | SK-MEL-28 31.8 µM | TK-10 > 100 µM

NC(=O)c1c(-c2ccccc2)c(-c2ccccc2)cc2c(=O)c3ccccc3[nH]c12
inactive: 786-0 8.53 µM | A549 23.8 µM | COLO 205 29 µM | EKVX 41.2 µM | HCC 2998 43.2 µM | HOP-62 24.2 µM | HT-29 18.9 µM | K562 30.3 µM | LOX IMVI 45.5 µM | MOLT-4 16.4 µM | NCI-H460 22.2 µM | NCI-H522 5.85 µM | OVCAR-3 23.1 µM | OVCAR-8 20.8 µM | RPMI-8226 28.4 µM | SK-MEL-28 17.8 µM | TK-10 18.5 µM

O=C1C2=C(N[C@@H](c3ccccc3)[C@H](c3ccccc3)N2)C(=O)c2ccccc21
inactive: 786-0 76.4 µM | A549 > 100 µM | HCC 2998 > 100 µM | HOP-62 > 100 µM | HT-29 > 100 µM | K562 > 100 µM | LOX IMVI > 100 µM | MOLT-4 > 100 µM | NCI-H460 > 100 µM | NCI-H522 > 100 µM | OVCAR-3 > 100 µM | OVCAR-8 > 100 µM | RPMI-8226 > 100 µM | RXF 393 > 100 µM | SK-MEL-28 > 100 µM | TK-10 > 100 µM

NC(=S)N/N=C(/CCN1CCCC1)CC(C1=C(O)C2=CCCCC2OC1=O)c1ccccc1 (centres undefined)
inactive: 786-0 > 100 µM | A549 > 100 µM | COLO 205 54.1 µM | EKVX > 100 µM | HCC 2998 > 100 µM | HOP-62 > 100 µM | HT-29 > 100 µM | K562 > 100 µM | LOX IMVI > 100 µM | NCI-H460 > 100 µM | NCI-H522 > 100 µM | OVCAR-3 > 100 µM | OVCAR-8 > 100 µM | RPMI-8226 > 100 µM | RXF 393 > 100 µM | TK-10 > 100 µM

Cc1cccc(-n2c(N)c(-c3nc4ccccc4[nH]3)sc2=S)c1
inactive: 786-0 24.4 µM | A549 28.2 µM | COLO 205 23.8 µM | EKVX 48.4 µM | HCC 2998 > 10 µM | HOP-62 29.6 µM | HT-29 23.1 µM | K562 29.2 µM | LOX IMVI 26.8 µM | MOLT-4 20.6 µM | NCI-H522 25.6 µM | OVCAR-3 25 µM | OVCAR-8 28.4 µM | RPMI-8226 20.7 µM | RXF 393 33.3 µM | SK-MEL-28 37 µM | TK-10 29.5 µM

N=C(N)NS(=O)(=O)c1ccc(NC(=O)c2cccc3cc4ccccc4nc23)cc1
inactive: 786-0 67.9 µM | A549 > 100 µM | COLO 205 > 100 µM | EKVX > 100 µM | HOP-62 94.2 µM | HT-29 > 100 µM | K562 53 µM | LOX IMVI 51.5 µM | MOLT-4 5.55 µM | NCI-H460 > 100 µM | NCI-H522 13.5 µM | OVCAR-3 > 100 µM | OVCAR-8 14.5 µM | RPMI-8226 > 100 µM | RXF 393 > 100 µM | SK-MEL-28 > 100 µM | TK-10 > 100 µM

O/N=C1/C(=C/c2ccc(OCc3ccccc3)cc2)CCCC1C(NO)c1ccc(OCc2ccccc2)cc1 (centres undefined)
inactive: 786-0 18.5 µM | A549 > 100 µM | COLO 205 16.9 µM | EKVX 5.43 µM | HCC 2998 46 µM | HOP-62 38.9 µM | HT-29 5.24 µM | K562 9.53 µM | LOX IMVI 4.05 µM | MOLT-4 5.6 µM | NCI-H460 14.2 µM | NCI-H522 6.27 µM | OVCAR-3 14.2 µM | OVCAR-8 26.7 µM | RXF 393 3.42 µM | SK-MEL-28 48.4 µM

O=C(Nc1ccc([N+](=O)[O-])cc1[N+](=O)[O-])C(=O)C(C(=O)c1ccc(Cl)c(Cl)c1)C1OC(=O)c2ccccc21 (centres undefined)
inactive: 786-0 18.5 µM | A549 26.1 µM | COLO 205 21.6 µM | EKVX 22.1 µM | HCC 2998 > 10 µM | HOP-62 16.7 µM | HT-29 25.8 µM | K562 28.4 µM | LOX IMVI 17.5 µM | MOLT-4 14.6 µM | NCI-H460 > 10 µM | NCI-H522 17.1 µM | OVCAR-3 27.7 µM | OVCAR-8 15.2 µM | RPMI-8226 25 µM | RXF 393 11.8 µM | TK-10 32.1 µM

Nc1c(-c2nc3ccccc3[nH]2)sc(=S)n1-c1ccccc1
inactive: 786-0 61.2 µM | A549 > 100 µM | COLO 205 > 100 µM | EKVX 55.2 µM | HCC 2998 > 100 µM | HOP-62 > 100 µM | HT-29 92.9 µM | K562 53.8 µM | MOLT-4 16.3 µM | NCI-H460 > 100 µM | NCI-H522 77.3 µM | OVCAR-3 51.2 µM | OVCAR-8 > 100 µM | RPMI-8226 34 µM | RXF 393 46.9 µM | SK-MEL-28 > 100 µM

CCc1ccccc1NC(=O)c1cccc([N+](=O)[O-])c1O
inactive: 786-0 71.6 µM | A549 24.8 µM | COLO 205 17.2 µM | EKVX 30.8 µM | HCC 2998 24.7 µM | HOP-62 19 µM | HT-29 26.5 µM | K562 40.4 µM | LOX IMVI 16.3 µM | MOLT-4 18.6 µM | NCI-H460 20.8 µM | NCI-H522 21 µM | OVCAR-3 26.7 µM | OVCAR-8 46.7 µM | RPMI-8226 5.41 µM | RXF 393 8.51 µM | SK-MEL-28 28.2 µM

— ChEMBL document CHEMBL1201862, “PubChem BioAssay data set” (2004)
